Source: the supplement of paper PMC10307832

What was measured:
Assay in all cases: relative viability (nuclei count vs DMSO), 5 days (fraction); higher = more cells survive
[1] = tested on: NCI-H1993
Summary of the method: (§1)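 Cells from lung cancer lines were seeded into 1536-well plates and, one day later, dosed by pin tool. Treatments were either a single drug or a fixed dose of an anchor drug with five library-drug doses (not always all listed) in √10 steps. After 5 days, nuclei were stained in a one-step fixation (final 0.05% Triton X-100, 1% formaldehyde, 1 ug/ml Hoechst) and counted on 4× images, and relative viability is the treated-to-vehicle nuclei ratio, as the median of duplicate plates.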

[2] = tested on: NCI-H1944
Summary of the method: as §1

[3] = tested on: NCI-H358
Summary of the method: as §1

[4] = tested on: LXF-289
Summary of the method: as §1

[5] = tested on: NCI-H1792
Summary of the method: as §1

[6] = tested on: COR-L 105
Summary of the method: as §1

[7] = tested on: NCI-H2023
Summary of the method: as §1

[8] = tested on: NCI-H2170
Summary of the method: as §1

[9] = tested on: NCI-H520
Summary of the method: as §1

[10] = tested on: NCI-H2087
Summary of the method: as §1

[11] = tested on: H3255
Summary of the method: as §1

[12] = tested on: SK-MES-1
Summary of the method: as §1

[13] = tested on: HCC-827
Summary of the method: as §1

[14] = tested on: NCI-H1793
Summary of the method: as §1

[15] = tested on: SW 1573
Summary of the method: as §1

[16] = tested on: LOU-NH91
Summary of the method: as §1

[17] = tested on: LCLC-103H
Summary of the method: as §1

[18] = tested on: NCI-H1975
Summary of the method: as §1

[19] = tested on: HCC-44
Summary of the method: as §1

[20] = tested on: NCI-H1915
Summary of the method: as §1

[21] = tested on: A-427
Summary of the method: as §1

## Cc1cn(-c2cc(NC(=O)c3ccc(C)c(Nc4nccc(-c5cccnc5)n4)c3)cc(C(F)(F)F)c2)cn1 [Nilotinib] + Cc1nc(NC(=O)N2CCC[C@H]2C(N)=O)sc1-c1ccnc(C(C)(C)C(F)(F)F)c1 [Alpelisib] (partner 2 µM)
[1]; first compound 0.001 µM
  relative viability: 0.716
[1]; first compound 0.003162 µM
  relative viability: 0.66
[1]; first compound 0.01 µM
  relative viability: 0.755
[1]; first compound 0.03162 µM
  relative viability: 0.594
[1]; first compound 0.1 µM
  relative viability: 0.617
[2]; first compound 0.001 µM
  relative viability: 0.867
[2]; first compound 0.003162 µM
  relative viability: 0.876
[2]; first compound 0.01 µM
  relative viability: 1.02
[2]; first compound 0.03162 µM
  relative viability: 0.837
[2]; first compound 0.1 µM
  relative viability: 0.767
[3]; first compound 0.001 µM
  relative viability: 0.958
[3]; first compound 0.003162 µM
  relative viability: 1.18
[3]; first compound 0.01 µM
  relative viability: 0.999
[3]; first compound 0.03162 µM
  relative viability: 0.686
[3]; first compound 0.1 µM
  relative viability: 0.666
[4]; first compound 0.001 µM
  relative viability: 1.02
[4]; first compound 0.003162 µM
  relative viability: 1.26
[4]; first compound 0.01 µM
  relative viability: 1.23
[4]; first compound 0.03162 µM
  relative viability: 0.935
[4]; first compound 0.1 µM
  relative viability: 0.93
[5]; first compound 0.001 µM
  relative viability: 0.57
[5]; first compound 0.01 µM
  relative viability: 0.718
[5]; first compound 0.1 µM
  relative viability: 1.01
[6]; first compound 0.001 µM
  relative viability: 0.905
[6]; first compound 0.01 µM
  relative viability: 1.22
[6]; first compound 0.03162 µM
  relative viability: 0.92
[6]; first compound 0.1 µM
  relative viability: 0.917
[7]; first compound 0.001 µM
  relative viability: 0.513
[7]; first compound 0.003162 µM
  relative viability: 0.655
[7]; first compound 0.01 µM
  relative viability: 0.654
[7]; first compound 0.03162 µM
  relative viability: 0.558
[7]; first compound 0.1 µM
  relative viability: 0.478
[8]; first compound 0.001 µM
  relative viability: 0.865
[8]; first compound 0.003162 µM
  relative viability: 0.916
[8]; first compound 0.01 µM
  relative viability: 1.15
[8]; first compound 0.03162 µM
  relative viability: 0.767
[8]; first compound 0.1 µM
  relative viability: 1.07
[9]; first compound 0.001 µM
  relative viability: 0.793
[9]; first compound 0.01 µM
  relative viability: 0.986
[9]; first compound 0.03162 µM
  relative viability: 0.719
[9]; first compound 0.1 µM
  relative viability: 1.03
[10]; first compound 0.001 µM
  relative viability: 0.831
[10]; first compound 0.003162 µM
  relative viability: 1.08
[10]; first compound 0.01 µM
  relative viability: 1.23
[10]; first compound 0.03162 µM
  relative viability: 0.938
[10]; first compound 0.1 µM
  relative viability: 0.794
[11]; first compound 0.001 µM
  relative viability: 0.681
[11]; first compound 0.003162 µM
  relative viability: 0.699
[11]; first compound 0.01 µM
  relative viability: 0.829
[11]; first compound 0.03162 µM
  relative viability: 0.65
[11]; first compound 0.1 µM
  relative viability: 0.796
[12]; first compound 0.001 µM
  relative viability: 0.881
[12]; first compound 0.003162 µM
  relative viability: 1.15
[12]; first compound 0.01 µM
  relative viability: 0.95
[12]; first compound 0.03162 µM
  relative viability: 0.829
[12]; first compound 0.1 µM
  relative viability: 1.01
[13]; first compound 0.001 µM
  relative viability: 1.1
[13]; first compound 0.003162 µM
  relative viability: 1.09
[13]; first compound 0.01 µM
  relative viability: 1.03
[13]; first compound 0.1 µM
  relative viability: 0.92
[14]; first compound 0.003162 µM
  relative viability: 0.778
[14]; first compound 0.01 µM
  relative viability: 0.861
[14]; first compound 0.03162 µM
  relative viability: 0.625
[14]; first compound 0.1 µM
  relative viability: 0.454
[15]; first compound 0.001 µM
  relative viability: 0.867
[15]; first compound 0.003162 µM
  relative viability: 0.764
[15]; first compound 0.01 µM
  relative viability: 0.92
[15]; first compound 0.03162 µM
  relative viability: 0.594
[15]; first compound 0.1 µM
  relative viability: 0.682
[16]; first compound 0.001 µM
  relative viability: 0.741
[16]; first compound 0.003162 µM
  relative viability: 0.7
[16]; first compound 0.01 µM
  relative viability: 0.802
[16]; first compound 0.03162 µM
  relative viability: 0.707
[16]; first compound 0.1 µM
  relative viability: 0.676
[17]; first compound 0.001 µM
  relative viability: 1.03
[17]; first compound 0.003162 µM
  relative viability: 1.09
[17]; first compound 0.03162 µM
  relative viability: 1
[17]; first compound 0.1 µM
  relative viability: 0.956
[18]; first compound 0.001 µM
  relative viability: 0.723
[18]; first compound 0.003162 µM
  relative viability: 0.867
[18]; first compound 0.01 µM
  relative viability: 0.868
[18]; first compound 0.03162 µM
  relative viability: 0.737
[18]; first compound 0.1 µM
  relative viability: 0.648
[19]; first compound 0.001 µM
  relative viability: 0.708
[19]; first compound 0.003162 µM
  relative viability: 0.939
[19]; first compound 0.01 µM
  relative viability: 0.898
[19]; first compound 0.03162 µM
  relative viability: 0.59
[19]; first compound 0.1 µM
  relative viability: 0.74
[20]; first compound 0.001 µM
  relative viability: 0.981
[20]; first compound 0.003162 µM
  relative viability: 1.1
[20]; first compound 0.01 µM
  relative viability: 1.14
[20]; first compound 0.03162 µM
  relative viability: 1.01
[20]; first compound 0.1 µM
  relative viability: 0.981
[21]; first compound 0.001 µM
  relative viability: 1.07
[21]; first compound 0.01 µM
  relative viability: 1.13
[21]; first compound 0.03162 µM
  relative viability: 1.06
[21]; first compound 0.1 µM
  relative viability: 0.808
